pIC50: −log10 of the molar value.

The subject of assay [1] is NCI-H358 cells (KRAS G12C). In words: Cell viability assay (Cell Counting Kit-8, 3-day). Format: cell-based, human. As to conditions: Homo sapiens, NCI-H358, 72 h, NCI-H358, 72 hrs incubation. The protocol: (§1) The purpose of this cellular assay was to determine the effects of test compounds on the proliferation of human cancer cell lines NCI-H358 (ATCC-CRL5807) cells, AGS (ATCC-CRL-1739) cells, SW620 (ATCC-CCL-227) over a 3-day treatment period by quantifying the amount of NADPH present at endpoint using Cell Counting Kit-8.
(§2) Cells were seeded at 5,000 cells/well (NCI-H358), 2,000 cells/well (AGS) 2,000 cells/well (SW620) in 96-well assay plates (Corning-3699) and incubated overnight. On the day of the assay, diluted compounds were then added in a final concentration of 0.5% DMSO. After 72 hrs incubation, a tenth of the volume of cell counting kit 8 (Dnjindo-CK04) was added into each well. Read the signal (OD450 minus OD650) using EnVision after 2 hrs incubation. IC50 was determined by fitting a 4-parameter sigmoidal concentration response model.

Assay [2] deals with AGS cells (KRAS G12D). In words: Cell viability assay (Cell Counting Kit-8, 3-day). Format: cell-based, human. The settings on record: Homo sapiens, 72 h, 72 hrs incubation. The protocol:
as §1, §2

In assay [3] the test system is SW620 cells (KRAS G12V). In words: Cell viability assay (Cell Counting Kit-8, 3-day). Format: cell-based, human. As to conditions: Homo sapiens, SW-620; SW620, 72 hrs incubation. The protocol: as §1, §2
Assay [4] has as its system phosphorylation of ERK, KRAS G12V in SW620. Put plainly: pERK inhibition assay. The settings on record: Homo sapiens, SW-620, 4 h, SW620 cells. Format: cell-based. The protocol:
(§3) This assay is to measure the ability of test compounds in inhibiting the phosphorylation of ERK, the downstream signaling of KRAS G12C in NCI-H358 cells, KRAS G12D in AGS cells, and KRAS G12V in SW620. NCI-H358 (ATCC-CRL5807) cells, AGS (ATCC-CRL-1739) cells, SW620 (ATCC-CCL-227) cells were all grown and maintained using RPMI-1640 medium (Thermo Fisher Scientific) with 10% fetal bovine serum and 1% penicillin/streptomycin. On the day prior to compound addition, cells were plated in tissue culture-treated 96 well plates (Corning-3699) at a density of 30,000 cell/well, 20,000 cell/well, 30,000 cell/well for NCI-H358, AGS and SW620 respectively, and allowed for attachment overnight. Diluted compounds were then added in a final concentration of 0.5% DMSO. After 4 hours of incubation, the medium was removed, 100 μL of 4% formaldehyde was added, and the assay plates were incubated at room temperature for 20 minutes. The plates were then washed once with phosphate buffered saline (PBS), and permeabilized with 100 μL of chilled methanol for 10 minutes. Non-specific antibody binding to the plates was blocked using 50 μL 1X BSA blocking buffer (Thermo-37520, 10-fold dilution by Phosphate-Buffered Saline Tween (PBST) for at least 1 hour at room temperature.
(§4) The amount of phosphor-ERK was determined using an antibody specific for phosphorylated form of ERK. Primary antibody (PERK, CST-4370, Cell Signaling Technology) was diluted 1:300 in blocking buffer, with 50 μL aliquoted to each well, and incubated overnight at 4° C. Cells was washed five times for 5 minutes with PBST. Secondary antibody (HRP-linked anti-rabbit IgG, CST-7074, Cell Signaling Technology) was diluted 1:1000 in blocking buffer, and 50 μL was added to each well and incubated 1-2 hrs at room temperature. Cells was washed […] for 5 minutes with PBST, 100 μL TMB ELISA substrate (abcam-ab171523) were added and gently shake for 20 minutes. 50 μL stop solution (abcam-ab 171529) were added, and then read the signal (OD450) by EnVision.
(§5) IC50 was determined by fitting a 4-parameter sigmoidal concentration response model.

Assay [5] deals with phosphorylation of ERK, KRAS G12C in NCI-H358 cells. In words: pERK inhibition assay. As to conditions: Homo sapiens, NCI-H358, 4 h. Format: cell-based. The protocol:
as §3, §4, §5

Assay [6] concerns phosphorylation of ERK, KRAS G12D in AGS cells. Put plainly: pERK inhibition assay. As to conditions: Homo sapiens, AGS, 4 h. Type of assay: cell-based. The protocol:
as §3, §4, §5

Regarding `CO[C@@H](C)c1ncc(N2CCN(C)CC2)cc1-c1c2c3cc(cc4c3n1CC(F)(F)C4)-c1csc(n1)C[C@H](NC(=O)[C@H]1C[C@@H]1c1ccccc1)C(=O)N1CCC[C@H](N1)C(=O)OCC(C)(C)C2` (atropisomer, axis not shown; (M)) [Example 78], the pIC50 in assay [1] was 8.01; in assay [2], 7.51; in assay [3], 8.64; in assay [4] it was 8.96; in assay [5], 8.70; in assay [6] it was 8.00.
With `CO[C@@H](C)c1ncc(N2CCN(C)CC2)cc1-c1c2c3cc(cc4c3n1CCC4)-c1csc(n1)C[C@H](NC(=O)[C@H]1C[C@@H]1c1ncccn1)C(=O)N1CCC[C@H](N1)C(=O)OCC(C)(C)C2` [Example 80, (1S,2S)-N-[(7S,13S)-(20M)-20-[2-[(1S)-1-methoxyethyl]-5-(4-methylpiperazin-1-yl)-3-pyridyl]-17,17-dimethyl-8,14-dioxo-15-oxa-4-thia-9,21,30,31-tetrazahexacyclo[23.3.1.1^2,5.1^9,13.0^19,27.0^21,26]hentriaconta-1 (28),2,5 (31), 19,25 (29),26-hexaen-7-yl]-2-pyrimidin-2-yl-cyclopropanecarboxamide], the pIC50 is 8.38 in assay [4], 8.29 in assay [5] and 7.32 in assay [6].
For the compound `CO[C@@H](C)c1ncc(N2CCOCC2)cc1-c1c2c3cc(cc4c3n1CC(C)(C)O4)-c1csc(n1)C[C@H](NC(=O)[C@H]1C[C@@H]1C)C(=O)N1CCC[C@H](N1)C(=O)OCC(C)(C)C2` (atropisomer, axis not shown; (M)) [Example 38, (1S,2S)-N-[(7S,13S)-(20M)-20-[2-[(1S)-1-methoxyethyl]-5-morpholino-3-pyridyl]-17,17,23,23-tetramethyl-8,14-dioxo-15,24-dioxa-4-thia-9,21,30,31-tetrazahexacyclo[23.3.1.1^2,5.1^9,13.0^19,27.0^21,26]hentriaconta-1 (28),2,5 (31),19,25 (29),26-hexaen-7-yl]-2-methyl-cyclopropanecarboxamide], the pIC50 in assay [1] is 7.05; in assay [2], 6.92; in assay [3], 7.74; in assay [4], 8.26; in assay [5], 8.10; in assay [6] it was 7.23.
`CO[C@@H](C)c1ncc(N2CCN(C)CC2)cc1-c1c2c3cc(cc4c3n1CCCCC4)-c1csc(n1)C[C@H](NC(=O)[C@H]1[C@H](C)[C@@H]1C)C(=O)N1CCC[C@H](N1)C(=O)OCC(C)(C)C2` [Example 127, (1r,2R,3S)-N-[(7S,13S)-(20M)-20-[2-[(1S)-1-methoxyethyl]-5-(4-methylpiperazin-1-yl)-3-pyridyl]-17,17-dimethyl-8,14-dioxo-15-oxa-4-thia-9,21,32,33-tetrazahexacyclo[25.3.1.1^2,5.1^9,13.0^19,29.0^21,28]tritriaconta-1 (30),2,5 (33),19,27 (31),28-hexaen-7-yl]-2,3-dimethyl-cyclopropanecarboxamide]: the pIC50 was 6.00 in assay [1]; 6.00 in assay [2]; 7.57 in assay [3]; 7.52 in assay [4]; 7.52 in assay [5]; 6.16 in assay [6].
`CO[C@@H](C)c1ncc(N2CCN(CC(F)(F)F)CC2)cc1-c1c2c3cc(cc4c3n1CC(F)(F)C4)-c1csc(n1)C[C@H](NC(=O)[C@H]1C[C@@H]1C)C(=O)N1CCC[C@H](N1)C(=O)OCC(C)(C)C2` (atropisomer, axis not shown; (M)) [Example 67, (1S,2S)-N-[(7S,13S)-23,23-difluoro-(20M)-20-[2-[(1S)-1-methoxyethyl]-5-[4-(2,2,2-trifluoroethyl)piperazin-1-yl]-3-pyridyl]-17,17-dimethyl-8,14-dioxo-15-oxa-4-thia-9,21,30,31-tetrazahexacyclo[23.3.1.1^2,5.1^9,13.0^19,27.0^21,26]hentriaconta-1 (28),2,5 (31),19,25 (29),26-hexaen-7-yl]-2-methyl-cyclopropanecarboxamide]: the pIC50 was 8.49 in assay [4], 8.62 in assay [5] and 7.50 in assay [6].
